In US10822723B2, “Fusion protein crystal comprising a moiety” (Agency for Science, Technology and Research, priority 2015, dated 2020):

Legend:
[1] = biological target: T1, GFP-Inka1:Flag-PAK4cat crystal (Homo sapiens, UniProt O96013); test: Live cell imaging of GFP-Inka1:PAK4cat crystal growth; assay type: cell-based; details: 5 μM, FIG. 6d
T1 construct: the kinase catalytic domain of human PAK4 (278-591); expressed in transfected cells
Method: The cells were plated at 50% confluence glass cover slips overnight: plasmid transfection used GFP-iBox-Pak4cat and FLAG-iBox-Pak4cat constructs at a ratio of 4:1 to promote crystal nucleation. The cover slips were transferred to a Chamlide magnetic chamber (Live cell instruments, Seoul, Korea) with 5% CO2 at 37° C. for live imaging on an Zeiss Axiovert 200M Live Cell Imaging with a 10× objective. We imaged multiple chosen regions for 8 hours at 6 min intervals. To measure crystal growth rate, we used instead a Nikon Eclipse Ti microscope equipped with spinning disk confocal attachment (Yokogawa CSU-22 module) to avoid photo-damage. The cells were imaged at 60×1.4 NA objective at 2 min intervals. For SIM and confocal imaging, cells were fixed in non-hardening mounting media (Vectashield). The slides were imaged by Delta vision OMX SIM with a 100×1.4 NA objective. Confocal imaging used an Olympus FV1000 upright system with 60×1.42NA objective. The 3D stacks were analyzed by IMARIS software.

PAK1 = PAK1 (Homo sapiens, UniProt Q13153); test: In vitro kinase assay, phosphorylation of GST-Raf13 by 6His-PAK1 (activated); assay type: biochemical; details: FIG. 1c
Chain of PAK1 (Q13153 whole entry): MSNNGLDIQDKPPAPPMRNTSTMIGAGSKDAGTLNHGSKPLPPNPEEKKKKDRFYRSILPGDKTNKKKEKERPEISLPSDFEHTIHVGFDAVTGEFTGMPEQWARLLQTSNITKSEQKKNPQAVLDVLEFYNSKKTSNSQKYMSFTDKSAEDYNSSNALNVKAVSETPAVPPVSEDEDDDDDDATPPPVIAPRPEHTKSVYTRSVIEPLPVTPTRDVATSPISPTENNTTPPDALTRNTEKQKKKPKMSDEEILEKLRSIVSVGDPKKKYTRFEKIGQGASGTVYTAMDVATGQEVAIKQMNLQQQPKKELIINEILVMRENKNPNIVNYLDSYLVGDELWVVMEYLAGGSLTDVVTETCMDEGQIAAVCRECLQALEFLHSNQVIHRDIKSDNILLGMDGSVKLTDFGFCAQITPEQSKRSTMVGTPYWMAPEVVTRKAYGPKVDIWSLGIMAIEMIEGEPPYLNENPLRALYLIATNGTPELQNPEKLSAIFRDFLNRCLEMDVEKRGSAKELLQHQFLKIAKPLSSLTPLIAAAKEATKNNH
Method: (§1) Purified PAK1 or PAK4 (50 nM in 25-50 μl) were incubated with 10 μM GST-Raf1S338 peptide in 10 μM ATP (2 μCi of γ32P ATP) of kinase buffer (25 mM Hepes, pH 7.3, 0.1% Triton-X100, 50 mM KCl, 10 mM MgCl2, 1 mM DTT) at 30° C. for 20 min. Samples were analysed by SDS-polyacrylamide gel electrophoresis, or adsorption of the GST substrate mix onto PVDF membranes, followed by extensive washing to remove free γ32P-ATP. The synthetic peptides of 95% purity, as determined by HPLC and MS analyses (GenScript), were soluble in aqueous PBS. Stock solutions (10 mM) were quantified via calculated extinction coefficients and absorbance measurements at 280 nm and stored at −80° C. The diluted peptides were incubated at the indicated concentrations with the kinase on ice (10 min) before addition of γ32P ATP and subsequent incubation at 30° C. The synthetic peptide array (Jerini Biotools) was phosphorylated in situ as described previously.

PAK4cat = biological target: T2, PAK4cat (Homo sapiens, UniProt O96013); test: In vitro kinase assay, phosphorylation of GST-Raf13 by PAK4cat; assay type: biochemical; details: FIG. 1c
T2 construct: PAK1 (1-545) and PAK4 (286-591), respectively; 6His (N); made in house; host or cells: Escherichia coli BL21-CodonPlus(DE3)
T2 sequence (O96013 286-591): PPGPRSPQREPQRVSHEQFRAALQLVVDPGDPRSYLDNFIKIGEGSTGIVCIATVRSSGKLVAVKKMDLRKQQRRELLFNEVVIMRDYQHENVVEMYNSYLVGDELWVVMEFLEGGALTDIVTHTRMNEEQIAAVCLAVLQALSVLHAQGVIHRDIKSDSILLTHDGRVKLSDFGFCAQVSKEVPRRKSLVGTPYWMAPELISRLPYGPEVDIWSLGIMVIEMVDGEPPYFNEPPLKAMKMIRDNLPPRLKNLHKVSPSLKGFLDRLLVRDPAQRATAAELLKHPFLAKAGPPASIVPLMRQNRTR
Method: as §1

T1 sequence (O96013 278-591): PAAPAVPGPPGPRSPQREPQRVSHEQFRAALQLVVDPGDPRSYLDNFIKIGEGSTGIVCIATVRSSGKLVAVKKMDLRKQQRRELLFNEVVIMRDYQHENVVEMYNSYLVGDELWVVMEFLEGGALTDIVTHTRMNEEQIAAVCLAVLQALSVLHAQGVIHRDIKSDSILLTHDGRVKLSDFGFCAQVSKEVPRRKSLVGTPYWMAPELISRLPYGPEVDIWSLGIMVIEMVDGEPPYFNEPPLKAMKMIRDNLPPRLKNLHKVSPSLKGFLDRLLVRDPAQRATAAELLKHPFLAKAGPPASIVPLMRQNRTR

Compound	GFP signal of co-crystals during the elongation phase ([1]; GFP-Inka1:HA-PAK4cat co-crystals)	crystal growth after drug addition ([1]; growing GFP-Inka1:Flag-PAK4cat crystal)	effect on PAK1 (PAK1)	PAK4cat inhibition in vitro (PAK4cat)
Cc1nc(Nc2[nH]nc3c2CN(C(=O)N[C@H](CN(C)C)c2ccccc2)C3(C)C)c2sccc2n1 [PF-03758309]	depleted of GFP signal	slowed	–	–
GST-iBox: recombinant 38 amino acid 'Inka box' (Inka1 residues 166-203) as GST fusion	–	–	does not affect	potent
